Assay results as given in PMC4546632, “Active Transport of Phosphorylated Carbohydrates Promotes Intestinal Colonization and Transmission of a Bacterial Pathogen” (PLoS Pathogens, 2015).
Like-named read-outs stand apart in the source and are kept apart here.

Key:
Settings in all cases: 20 mM Tris pH 8, 100 mM NaCl
[1] = molecular target: T1, C. rodentium AfuA (Citrobacter rodentium, UniProt D2TKU7); assay: isothermal titration calorimetry; format: binding
T1 construct: recombinant AfuA; construct details only in supplement
T1 sequence (D2TKU7 entry or part of it): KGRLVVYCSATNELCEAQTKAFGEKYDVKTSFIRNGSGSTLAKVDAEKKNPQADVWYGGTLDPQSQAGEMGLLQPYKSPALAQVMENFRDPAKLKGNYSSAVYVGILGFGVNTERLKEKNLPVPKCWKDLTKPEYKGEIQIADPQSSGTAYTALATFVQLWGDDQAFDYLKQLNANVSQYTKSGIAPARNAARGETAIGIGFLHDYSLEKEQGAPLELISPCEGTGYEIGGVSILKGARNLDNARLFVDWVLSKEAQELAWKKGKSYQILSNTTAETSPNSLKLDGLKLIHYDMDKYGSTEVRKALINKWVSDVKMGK
Text: isothermal titration calorimetry on C. rodentium AfuA | These amounts exceed the Kd of C. rodentium AfuA for G6P or F6P

[2] = molecular target: AfuA (Actinobacillus pleuropneumoniae, UniProt A3N294, S64D)
Chain of AfuA (Actinobacillus pleuropneumoniae, UniProt A3N294, S64D) (A3N294 28-346 S64D): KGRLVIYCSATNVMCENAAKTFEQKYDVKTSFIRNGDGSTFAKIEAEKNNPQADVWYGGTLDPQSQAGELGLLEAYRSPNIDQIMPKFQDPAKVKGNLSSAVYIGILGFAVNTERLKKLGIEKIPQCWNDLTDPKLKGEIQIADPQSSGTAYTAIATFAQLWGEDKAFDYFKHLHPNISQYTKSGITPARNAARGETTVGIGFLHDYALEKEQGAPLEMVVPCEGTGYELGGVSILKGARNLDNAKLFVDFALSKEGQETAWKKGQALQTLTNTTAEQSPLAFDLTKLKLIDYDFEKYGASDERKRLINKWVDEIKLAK

[3] = molecular target: AfuA (Actinobacillus pleuropneumoniae, UniProt A3N294, T177A)
Chain of AfuA (Actinobacillus pleuropneumoniae, UniProt A3N294, T177A) (A3N294 28-346 T177A): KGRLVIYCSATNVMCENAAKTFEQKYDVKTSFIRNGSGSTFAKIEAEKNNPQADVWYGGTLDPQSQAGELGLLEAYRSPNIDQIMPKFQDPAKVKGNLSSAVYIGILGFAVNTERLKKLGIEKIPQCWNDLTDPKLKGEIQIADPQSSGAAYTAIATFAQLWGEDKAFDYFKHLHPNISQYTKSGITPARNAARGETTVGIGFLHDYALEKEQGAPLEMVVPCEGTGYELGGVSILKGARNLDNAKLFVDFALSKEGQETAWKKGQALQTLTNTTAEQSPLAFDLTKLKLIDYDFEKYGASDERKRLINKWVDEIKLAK

[4] = molecular target: AfuA (Actinobacillus pleuropneumoniae, UniProt A3N294, S64A)
Chain of AfuA (Actinobacillus pleuropneumoniae, UniProt A3N294, S64A) (A3N294 28-346 S64A): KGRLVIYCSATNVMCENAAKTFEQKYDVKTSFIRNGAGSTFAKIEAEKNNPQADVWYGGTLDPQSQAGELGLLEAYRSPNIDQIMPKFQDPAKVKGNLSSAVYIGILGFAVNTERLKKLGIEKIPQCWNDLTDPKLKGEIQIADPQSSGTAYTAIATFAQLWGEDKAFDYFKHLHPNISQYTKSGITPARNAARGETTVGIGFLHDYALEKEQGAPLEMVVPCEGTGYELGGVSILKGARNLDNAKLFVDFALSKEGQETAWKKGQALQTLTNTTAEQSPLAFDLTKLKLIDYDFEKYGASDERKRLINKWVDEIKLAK

[5] = molecular target: T2, AfuA (Actinobacillus pleuropneumoniae, UniProt A3N294); assay: isothermal titration calorimetry; format: binding
T2 construct: pET26b, periplasmic expression in E. coli (osmotic shock), N-terminal 6xHis tag cleaved by thrombin
T2 sequence (A3N294 entry or part of it): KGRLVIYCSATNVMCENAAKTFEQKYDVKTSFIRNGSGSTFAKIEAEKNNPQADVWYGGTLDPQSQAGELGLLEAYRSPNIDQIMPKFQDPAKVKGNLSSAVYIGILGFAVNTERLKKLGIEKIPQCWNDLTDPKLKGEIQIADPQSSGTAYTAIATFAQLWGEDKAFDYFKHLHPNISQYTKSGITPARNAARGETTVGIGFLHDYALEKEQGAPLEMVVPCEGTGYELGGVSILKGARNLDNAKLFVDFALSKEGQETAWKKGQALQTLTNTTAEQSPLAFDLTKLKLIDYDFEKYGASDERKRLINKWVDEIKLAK
Text: isothermal titration calorimetry on AfuA

## O=P(O)(O)OC[C@H]1OC(O)[C@H](O)[C@@H](O)[C@@H]1O (some centres unmarked) [Glucose-6-phosphate]
[1]
  Kd: 164 ± 94 nM
[2]
  Kd: 5500 ± 900 nM
[3]
  Kd: 3300 ± 200 nM
[4]
  Kd: 900 ± 100 nM
[5]; read-out: Kd
  Kd: 23 ± 4 nM

## O=P(O)(O)OC[C@H]1OC(O)(CO)[C@@H](O)[C@@H]1O (some centres unmarked) [Fructose-6-phosphate]
[5]; read-out: Kd
  Kd: 8 ± 1 nM

## O=P(O)(O)OC[C@H]1OC(O)[C@@H](O)[C@@H](O)[C@@H]1O (some centres unmarked) [Mannose-6-phosphate]
[5]; read-out: Kd
  Kd: 960 ± 150 nM

## O=P(O)(O)OC[C@@H](O)[C@H]1OC(O)(CO)[C@@H](O)[C@@H]1O (some centres unmarked) [Sedoheptulose-7-phosphate]
[5]
  Kd: 57 ± 22 nM
